Assay results: the NIST ThermoML archive (doi:10.1021/je400149j)
Numbers after ± are expanded uncertainties.

Assay: relative permittivity at zero frequency (dimensionless); xn = mol fraction of the nth substance listed
Settings: 101 kPa, Liquid, impedance/gain phase analyzer

C[S+](C)[O-] [dimethyl sulfoxide] + O
relative permittivity at zero frequency
Settings | x1 = 0.1536 | x1 = 0.2496 | x1 = 0.3505 | x1 = 0.4975 | x1 = 0.5991 | x1 = 0.7039 | x1 = 0.7882 | x1 = 0.8297 | x1 = 0.9159 | x1 = 1
253.15 K | 91.94 ± 0.1 | 88.58 ± 0.1 | 84.04 ± 0.1 | 76.79 ± 0.1 | – | – | – | – | – | –
255.15 K | 91.25 ± 0.1 | 87.74 ± 0.1 | 83.36 ± 0.1 | 76.23 ± 0.1 | – | – | – | – | – | –
257.15 K | 90.45 ± 0.1 | 86.97 ± 0.1 | 82.67 ± 0.1 | 75.63 ± 0.1 | – | – | – | – | – | –
259.15 K | 89.61 ± 0.1 | 86.2 ± 0.1 | 82.03 ± 0.1 | 75.1 ± 0.1 | – | – | – | – | – | –
261.15 K | 88.8 ± 0.1 | 85.42 ± 0.1 | 81.31 ± 0.1 | 74.51 ± 0.1 | 69.37 ± 0.1 | – | – | – | – | –
263.15 K | 87.94 ± 0.1 | 84.64 ± 0.1 | 80.65 ± 0.1 | 73.97 ± 0.1 | 68.84 ± 0.1 | – | – | – | – | –
265.15 K | 87.11 ± 0.1 | 83.94 ± 0.1 | 79.97 ± 0.1 | 73.39 ± 0.1 | 68.38 ± 0.1 | – | – | – | – | –
267.15 K | 86.34 ± 0.1 | 83.09 ± 0.1 | 79.33 ± 0.1 | 72.86 ± 0.1 | 67.89 ± 0.1 | – | – | – | – | –
269.15 K | 85.49 ± 0.1 | 82.43 ± 0.1 | 78.71 ± 0.1 | 72.29 ± 0.1 | 67.37 ± 0.1 | – | – | – | – | –
271.15 K | 84.69 ± 0.1 | 81.68 ± 0.1 | 78.01 ± 0.1 | 71.63 ± 0.1 | 66.92 ± 0.1 | – | – | – | – | –
273.15 K | 83.99 ± 0.1 | 80.92 ± 0.1 | 77.39 ± 0.1 | 71.06 ± 0.1 | 66.4 ± 0.1 | 60.97 ± 0.1 | – | – | – | –
275.15 K | 83.16 ± 0.1 | 80.24 ± 0.1 | 76.74 ± 0.1 | 70.47 ± 0.1 | 65.94 ± 0.1 | 60.58 ± 0.1 | – | – | – | –
277.15 K | 82.38 ± 0.1 | 79.52 ± 0.1 | 75.92 ± 0.1 | 69.92 ± 0.1 | 65.48 ± 0.1 | 60.19 ± 0.1 | – | – | – | –
279.15 K | 81.7 ± 0.1 | 78.75 ± 0.1 | 75.25 ± 0.1 | 69.35 ± 0.1 | 65 ± 0.1 | 59.84 ± 0.1 | 56.06 ± 0.1 | – | – | –
281.15 K | 80.98 ± 0.1 | 78.14 ± 0.1 | 74.63 ± 0.1 | 68.84 ± 0.1 | 64.52 ± 0.1 | 59.46 ± 0.1 | 55.83 ± 0.1 | – | – | –
283.15 K | 80.31 ± 0.1 | 77.42 ± 0.1 | 74.04 ± 0.1 | 68.36 ± 0.1 | 64.1 ± 0.1 | 59.05 ± 0.1 | 55.54 ± 0.1 | 53.95 ± 0.1 | – | –
285.15 K | 79.54 ± 0.1 | 76.72 ± 0.1 | 73.46 ± 0.1 | 67.82 ± 0.1 | 63.61 ± 0.1 | 58.67 ± 0.1 | 55.2 ± 0.1 | 53.67 ± 0.1 | – | –
287.15 K | 78.93 ± 0.1 | 76.14 ± 0.1 | 72.79 ± 0.1 | 67.3 ± 0.1 | 63.09 ± 0.1 | 58.31 ± 0.1 | 54.84 ± 0.1 | 53.38 ± 0.1 | 50.53 ± 0.1 | –
289.15 K | 78.19 ± 0.1 | 75.4 ± 0.1 | 72.06 ± 0.1 | 66.67 ± 0.1 | 62.58 ± 0.1 | 57.91 ± 0.1 | 54.52 ± 0.1 | 53.01 ± 0.1 | 50.3 ± 0.1 | –
291.15 K | 77.43 ± 0.1 | 74.76 ± 0.1 | 71.47 ± 0.1 | 66.13 ± 0.1 | 62.13 ± 0.1 | 57.57 ± 0.1 | 54.21 ± 0.1 | 52.68 ± 0.1 | 50.06 ± 0.1 | 47.15 ± 0.1
293.15 K | 76.72 ± 0.1 | 74.13 ± 0.1 | 70.84 ± 0.1 | 65.63 ± 0.1 | 61.65 ± 0.1 | 57.17 ± 0.1 | 53.82 ± 0.1 | 52.36 ± 0.1 | 49.79 ± 0.1 | 47.09 ± 0.1
295.15 K | 75.97 ± 0.1 | 73.52 ± 0.1 | 70.29 ± 0.1 | 65.13 ± 0.1 | 61.23 ± 0.1 | 56.81 ± 0.1 | 53.45 ± 0.1 | 52.06 ± 0.1 | 49.53 ± 0.1 | 46.84 ± 0.1
297.15 K | 75.33 ± 0.1 | 72.88 ± 0.1 | 69.71 ± 0.1 | 64.67 ± 0.1 | 60.76 ± 0.1 | 56.37 ± 0.1 | 53.1 ± 0.1 | 51.72 ± 0.1 | 49.27 ± 0.1 | 46.64 ± 0.1
299.15 K | 74.63 ± 0.1 | 72.11 ± 0.1 | 69 ± 0.1 | 64.12 ± 0.1 | 60.32 ± 0.1 | 55.99 ± 0.1 | 52.77 ± 0.1 | 51.42 ± 0.1 | 49 ± 0.1 | 46.39 ± 0.1
301.15 K | 74.02 ± 0.1 | 71.48 ± 0.1 | 68.41 ± 0.1 | 63.63 ± 0.1 | 59.83 ± 0.1 | 55.59 ± 0.1 | 52.41 ± 0.1 | 51 ± 0.1 | 48.75 ± 0.1 | 46.18 ± 0.1
303.15 K | 73.34 ± 0.1 | 70.83 ± 0.1 | 67.88 ± 0.1 | 63.07 ± 0.1 | 59.38 ± 0.1 | 55.21 ± 0.1 | 52.03 ± 0.1 | 50.7 ± 0.1 | 48.48 ± 0.1 | 45.94 ± 0.1
305.15 K | 72.66 ± 0.1 | 70.21 ± 0.1 | 67.29 ± 0.1 | 62.57 ± 0.1 | 58.95 ± 0.1 | 54.82 ± 0.1 | 51.63 ± 0.1 | 50.38 ± 0.1 | 48.21 ± 0.1 | 45.63 ± 0.1
307.15 K | 72.02 ± 0.1 | 69.63 ± 0.1 | 66.63 ± 0.1 | 62.12 ± 0.1 | 58.51 ± 0.1 | 54.47 ± 0.1 | 51.27 ± 0.1 | 50.04 ± 0.1 | 47.94 ± 0.1 | 45.39 ± 0.1
309.15 K | 71.28 ± 0.1 | 69.05 ± 0.1 | 66.07 ± 0.1 | 61.59 ± 0.1 | 58.1 ± 0.1 | 54.05 ± 0.1 | 50.9 ± 0.1 | 49.68 ± 0.1 | 47.64 ± 0.1 | 45.14 ± 0.1
311.15 K | 70.73 ± 0.1 | 68.39 ± 0.1 | 65.52 ± 0.1 | 61.06 ± 0.1 | 57.64 ± 0.1 | 53.66 ± 0.1 | 50.51 ± 0.1 | 49.39 ± 0.1 | 47.35 ± 0.1 | 44.88 ± 0.1
313.15 K | 70.05 ± 0.1 | 67.84 ± 0.1 | 64.91 ± 0.1 | 60.58 ± 0.1 | 57.16 ± 0.1 | 53.28 ± 0.1 | 50.11 ± 0.1 | 49.02 ± 0.1 | 47.09 ± 0.1 | 44.64 ± 0.1
315.15 K | 69.51 ± 0.1 | 67.3 ± 0.1 | 64.33 ± 0.1 | 60.13 ± 0.1 | 56.72 ± 0.1 | 52.92 ± 0.1 | 49.73 ± 0.1 | 48.67 ± 0.1 | 46.85 ± 0.1 | 44.34 ± 0.1
317.15 K | 68.91 ± 0.1 | 66.79 ± 0.1 | 63.77 ± 0.1 | 59.56 ± 0.1 | 56.28 ± 0.1 | 52.56 ± 0.1 | 49.39 ± 0.1 | 48.36 ± 0.1 | 46.53 ± 0.1 | 44.11 ± 0.1
319.15 K | 68.26 ± 0.1 | 66.18 ± 0.1 | 63.12 ± 0.1 | 59.12 ± 0.1 | 55.79 ± 0.1 | 52.15 ± 0.1 | 49.09 ± 0.1 | 48 ± 0.1 | 46.26 ± 0.1 | 43.87 ± 0.1
321.15 K | 67.66 ± 0.1 | 65.6 ± 0.1 | 62.59 ± 0.1 | 58.67 ± 0.1 | 55.33 ± 0.1 | 51.79 ± 0.1 | 48.75 ± 0.1 | 47.69 ± 0.1 | 45.99 ± 0.1 | 43.58 ± 0.1
323.15 K | 67.01 ± 0.1 | 65.07 ± 0.1 | 62.03 ± 0.1 | 58.11 ± 0.1 | 54.85 ± 0.1 | 51.43 ± 0.1 | 48.37 ± 0.1 | 47.33 ± 0.1 | 45.72 ± 0.1 | 43.31 ± 0.1
325.15 K | 66.49 ± 0.1 | 64.43 ± 0.1 | 61.49 ± 0.1 | 57.67 ± 0.1 | 54.36 ± 0.1 | 51.04 ± 0.1 | 48.03 ± 0.1 | 47 ± 0.1 | 45.4 ± 0.1 | 43.07 ± 0.1
327.15 K | 65.83 ± 0.1 | 63.89 ± 0.1 | 60.98 ± 0.1 | 57.18 ± 0.1 | 54 ± 0.1 | 50.64 ± 0.1 | 47.64 ± 0.1 | 46.66 ± 0.1 | 45.12 ± 0.1 | 42.78 ± 0.1
329.15 K | 65.27 ± 0.1 | 63.35 ± 0.1 | 60.4 ± 0.1 | 56.69 ± 0.1 | 53.52 ± 0.1 | 50.25 ± 0.1 | 47.27 ± 0.1 | 46.35 ± 0.1 | 44.82 ± 0.1 | 42.56 ± 0.1
331.15 K | 64.72 ± 0.1 | 62.78 ± 0.1 | 59.87 ± 0.1 | 56.23 ± 0.1 | 53.03 ± 0.1 | 49.87 ± 0.1 | 46.94 ± 0.1 | 45.99 ± 0.1 | 44.53 ± 0.1 | 42.27 ± 0.1
333.15 K | 64.08 ± 0.1 | 62.18 ± 0.1 | 59.28 ± 0.1 | 55.72 ± 0.1 | 52.61 ± 0.1 | 49.49 ± 0.1 | 46.57 ± 0.1 | 45.67 ± 0.1 | 44.23 ± 0.1 | 42 ± 0.1
